Results published in publication PMC10629462 (Molecular cell, 2023).

How the values were obtained:
CtSen1^FL = CtSen1^FL (Thermochaetoides thermophila, UniProt G0S163); assay: malachite green phosphate release ATPase assay; format: biochemical; conditions: 1 mM ATP, 2 mM MgCl2, pH 7.5, 37 °C, RNA-DNA Sub6 5 μM, 5 nM enzyme
CtSen1Hel-1878 = molecular target: T1, CtSen1Hel-1878 (Chaetomium thermophilum, UniProt G0S163 1087-1878); assay: X-ray crystallography
T1 sequence: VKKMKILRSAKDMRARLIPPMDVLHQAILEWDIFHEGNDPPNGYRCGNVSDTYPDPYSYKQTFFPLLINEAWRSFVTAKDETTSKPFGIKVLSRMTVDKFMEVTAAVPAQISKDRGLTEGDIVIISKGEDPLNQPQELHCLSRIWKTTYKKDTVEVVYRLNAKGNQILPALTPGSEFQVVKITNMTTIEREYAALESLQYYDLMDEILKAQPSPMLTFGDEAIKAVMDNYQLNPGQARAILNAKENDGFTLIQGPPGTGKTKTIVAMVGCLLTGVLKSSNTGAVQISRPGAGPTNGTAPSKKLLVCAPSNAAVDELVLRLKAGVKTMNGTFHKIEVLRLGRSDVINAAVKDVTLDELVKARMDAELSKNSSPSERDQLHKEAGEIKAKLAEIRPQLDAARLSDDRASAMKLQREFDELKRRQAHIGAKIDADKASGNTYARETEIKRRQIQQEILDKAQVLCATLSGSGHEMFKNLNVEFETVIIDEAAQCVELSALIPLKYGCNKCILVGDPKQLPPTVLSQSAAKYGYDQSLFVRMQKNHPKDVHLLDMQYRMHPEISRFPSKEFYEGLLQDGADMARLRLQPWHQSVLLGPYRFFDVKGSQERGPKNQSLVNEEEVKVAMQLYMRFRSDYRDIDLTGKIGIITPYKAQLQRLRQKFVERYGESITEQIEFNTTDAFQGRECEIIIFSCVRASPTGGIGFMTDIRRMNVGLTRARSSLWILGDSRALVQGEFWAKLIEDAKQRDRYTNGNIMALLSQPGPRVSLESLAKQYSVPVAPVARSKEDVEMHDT

Sequence of CtSen1^FL (G0S163 1-1993): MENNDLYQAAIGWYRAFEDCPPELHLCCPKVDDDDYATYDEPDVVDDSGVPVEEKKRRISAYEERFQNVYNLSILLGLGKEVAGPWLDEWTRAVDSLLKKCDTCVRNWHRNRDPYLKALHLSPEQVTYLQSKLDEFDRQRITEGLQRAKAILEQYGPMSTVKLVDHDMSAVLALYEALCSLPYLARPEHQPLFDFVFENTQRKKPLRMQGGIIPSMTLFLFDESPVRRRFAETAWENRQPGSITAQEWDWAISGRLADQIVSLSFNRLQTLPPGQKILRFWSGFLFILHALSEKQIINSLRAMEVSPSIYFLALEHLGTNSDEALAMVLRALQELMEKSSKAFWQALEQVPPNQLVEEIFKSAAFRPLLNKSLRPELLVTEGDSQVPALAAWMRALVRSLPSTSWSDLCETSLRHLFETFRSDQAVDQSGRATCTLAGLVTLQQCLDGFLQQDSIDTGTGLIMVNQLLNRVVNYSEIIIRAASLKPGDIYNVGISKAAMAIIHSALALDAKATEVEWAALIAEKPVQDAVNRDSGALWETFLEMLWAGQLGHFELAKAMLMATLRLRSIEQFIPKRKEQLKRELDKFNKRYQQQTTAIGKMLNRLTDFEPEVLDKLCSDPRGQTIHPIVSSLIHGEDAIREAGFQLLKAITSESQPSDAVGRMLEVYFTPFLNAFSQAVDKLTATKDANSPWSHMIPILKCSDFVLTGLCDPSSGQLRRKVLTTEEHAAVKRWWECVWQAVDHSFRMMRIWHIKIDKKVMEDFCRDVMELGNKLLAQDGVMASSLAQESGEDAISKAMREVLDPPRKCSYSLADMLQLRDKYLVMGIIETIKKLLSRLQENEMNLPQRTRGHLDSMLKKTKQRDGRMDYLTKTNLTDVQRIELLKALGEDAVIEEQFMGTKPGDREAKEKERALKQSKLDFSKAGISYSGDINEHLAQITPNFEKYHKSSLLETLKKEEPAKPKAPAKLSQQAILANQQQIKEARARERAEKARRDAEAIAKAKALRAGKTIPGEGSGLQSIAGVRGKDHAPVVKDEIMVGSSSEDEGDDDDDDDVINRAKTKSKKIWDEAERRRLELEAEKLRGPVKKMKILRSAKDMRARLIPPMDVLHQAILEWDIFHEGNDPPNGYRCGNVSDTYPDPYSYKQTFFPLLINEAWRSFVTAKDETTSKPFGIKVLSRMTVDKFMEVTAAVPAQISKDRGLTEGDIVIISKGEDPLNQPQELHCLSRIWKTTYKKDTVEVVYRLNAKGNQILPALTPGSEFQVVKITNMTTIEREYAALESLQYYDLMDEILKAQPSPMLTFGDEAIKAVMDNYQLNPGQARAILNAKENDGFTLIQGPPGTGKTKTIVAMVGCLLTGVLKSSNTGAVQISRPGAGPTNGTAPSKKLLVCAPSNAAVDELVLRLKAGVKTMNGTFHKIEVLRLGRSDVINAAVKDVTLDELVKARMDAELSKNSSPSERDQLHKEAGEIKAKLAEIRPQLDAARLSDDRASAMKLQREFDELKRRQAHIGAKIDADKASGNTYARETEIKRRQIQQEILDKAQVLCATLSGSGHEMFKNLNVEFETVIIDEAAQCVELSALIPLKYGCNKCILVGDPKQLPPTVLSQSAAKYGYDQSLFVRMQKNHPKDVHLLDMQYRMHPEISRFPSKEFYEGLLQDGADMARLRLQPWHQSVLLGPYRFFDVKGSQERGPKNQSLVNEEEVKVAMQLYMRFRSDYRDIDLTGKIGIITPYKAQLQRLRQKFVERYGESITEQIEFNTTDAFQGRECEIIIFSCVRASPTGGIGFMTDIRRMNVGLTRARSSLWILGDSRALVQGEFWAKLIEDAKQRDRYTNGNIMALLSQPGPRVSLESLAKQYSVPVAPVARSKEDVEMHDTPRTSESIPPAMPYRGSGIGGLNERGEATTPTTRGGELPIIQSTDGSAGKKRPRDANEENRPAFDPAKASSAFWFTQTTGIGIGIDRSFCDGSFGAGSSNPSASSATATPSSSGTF

Molecule: Nc1ncnc2c1ncn2[C@@H]1O[C@H](COP(=O)(O)OP(=O)(O)OP(=O)(O)O)[C@@H](O)[C@H]1O [ATP]
- malachite green phosphate release ATPase assay (CtSen1^FL): Substrate stimulated ATP hydrolysis of mutant Sen1 proteins was monitored in a phosphate release assay

Molecule: UUUUUUUUUUUUUUU (ssRNA) [poly-U 15 nt]
- binding result (CtSen1Hel-1878): binds
